Assays:
[1] = in words, background statement; cited from earlier work
[2] = Solubility of mefenamic acid in water and various aqueous solutions; type: physicochemical; conditions: for solubility: aqueous solution containing polyvinylpyrrolidone and basic substance

SMILES: Cc1cccc(Nc2ccccc2C(=O)O)c1C [メフェナム酸, N−2,3−キシリルアントラニル酸]
- solubility in water [1]: 水に極めて溶けにくく
- solubility [2]: 高い溶解性を示し
- solubility ([2]; with nonionic surfactant of HLB 14-15 added): 溶解性が飛躍的に向上する
- solubility and stability ([2]; aqueous solution of polyvinylpyrrolidone and surfactant mixture, approximately pH 7.0-8.0): 良好な溶解性と安定性を示す

From patent JPH1029937A, “メフェナム酸水溶液製剤” (KOBAYASHI SEIYAKU KOGYO KK, priority 1996, dated 1997)
